The target in one experiment is T1, KRas^G12A (Homo sapiens, UniProt P01116, G12A).
T1 construct: Biotinylated KRas (corresponding to amino acids 1-169, produced at Accelegan Inc.); biotin (biotinylated); purchased Accelegan Inc
Nature of the experiment: KRas binding assay (TR-FRET tracer displacement), KRas G12A. The conditions noted are these: TR-FRET tracer displacement, KRas G12A. (In general: TR-FRET usually uses a lanthanide donor and a delayed reading to cut background.)

Another experiment addresses T2, KRas^Q61H (Homo sapiens, UniProt P01116, Q61H).
T2 construct: Biotinylated KRas (corresponding to amino acids 1-169, produced at Accelegan Inc.); biotin (biotinylated); purchased Accelegan Inc
The experiment in a line: KRas binding assay (TR-FRET tracer displacement), KRas Q61H. The conditions noted are these: TR-FRET tracer displacement, KRas Q61H.

In another experiment the target is T3, KRas^G12S (Homo sapiens, UniProt P01116, G12S).
T3 construct: Biotinylated KRas (corresponding to amino acids 1-169, produced at Accelegan Inc.); biotin (biotinylated); purchased Accelegan Inc
T3 sequence (P01116 1-169 isoform P01116-2 G12S): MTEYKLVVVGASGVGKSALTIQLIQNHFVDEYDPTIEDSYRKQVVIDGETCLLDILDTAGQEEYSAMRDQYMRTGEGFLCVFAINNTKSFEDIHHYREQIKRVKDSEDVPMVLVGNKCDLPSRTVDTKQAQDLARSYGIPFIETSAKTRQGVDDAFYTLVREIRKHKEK
The experiment in a line: KRas binding assay (TR-FRET tracer displacement), KRas G12S. The conditions noted are these: TR-FRET tracer displacement, KRas G12S.

The target in another experiment is T4, KRas^G12R (Homo sapiens, UniProt P01116, G12R).
T4 construct: Biotinylated KRas (corresponding to amino acids 1-169, produced at Accelegan Inc.); biotin (biotinylated); purchased Accelegan Inc
T4 sequence (P01116 1-169 isoform P01116-2 G12R): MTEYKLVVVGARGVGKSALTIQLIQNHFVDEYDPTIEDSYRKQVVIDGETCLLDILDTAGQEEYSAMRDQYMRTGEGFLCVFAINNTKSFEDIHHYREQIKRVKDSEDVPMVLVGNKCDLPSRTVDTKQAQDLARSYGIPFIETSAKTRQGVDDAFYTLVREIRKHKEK
The experiment in a line: KRas binding assay (TR-FRET tracer displacement), KRas G12R.

A further experiment has as its target T5, KRas^WT (Homo sapiens, UniProt P01116).
T5 construct: Biotinylated KRas (corresponding to amino acids 1-169, produced at Accelegan Inc.); biotin (biotinylated); purchased Accelegan Inc
Nature of the experiment: KRas binding assay (TR-FRET tracer displacement), KRas WT. As to conditions: TR-FRET tracer displacement, KRas WT.

For a further experiment, the target named is T6, KRas^G12V (Homo sapiens, UniProt P01116, G12V).
T6 construct: Biotinylated KRas (corresponding to amino acids 1-169, produced at Accelegan Inc.); biotin (biotinylated); purchased Accelegan Inc
T6 sequence (P01116 1-169 isoform P01116-2 G12V): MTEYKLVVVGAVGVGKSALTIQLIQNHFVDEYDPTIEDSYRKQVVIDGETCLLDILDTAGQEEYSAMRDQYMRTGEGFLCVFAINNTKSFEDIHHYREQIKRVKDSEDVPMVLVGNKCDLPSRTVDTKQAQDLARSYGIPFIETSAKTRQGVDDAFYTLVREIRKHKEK
The experiment in a line: KRas binding assay (TR-FRET tracer displacement), KRas G12V.

The target in a further experiment is T7, KRas^G12C (Homo sapiens, UniProt P01116, G12C).
T7 construct: Biotinylated KRas (corresponding to amino acids 1-169, produced at Accelegan Inc.); biotin (biotinylated); purchased Accelegan Inc
T7 sequence (P01116 1-169 isoform P01116-2 G12C): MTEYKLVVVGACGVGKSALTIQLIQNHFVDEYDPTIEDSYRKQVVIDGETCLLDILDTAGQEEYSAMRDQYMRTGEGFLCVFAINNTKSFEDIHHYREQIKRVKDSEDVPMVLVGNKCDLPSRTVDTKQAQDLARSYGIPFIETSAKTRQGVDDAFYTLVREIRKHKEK
The experiment in a line: KRas binding assay (TR-FRET tracer displacement), KRas G12C. As to conditions: TR-FRET tracer displacement, KRas G12C.

Experiment [1] deals with KRas-mediated phosphorylation of ERK in H727 cells. The experiment in a line: Inhibition of KRas-mediated phosphorylation of ERK (Cisbio HTRF pERK), H727 cells. The class given is cell-based. The conditions noted are these: Homo sapiens, NCI-H727, H727 cells; HTRF pERK. Put shortly:
(§1)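 6,000 cells/well; cpd 10 uM top, 3-fold x10, 0.8% DMSO final; 3 hr incubation; Min ctrl Trametinib 0.2 uM; lysis 40 min 4° C shaking; d2 + Cryptate Ab mix, 2 hr RT; HTRF read.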

Experiment [2] deals with KRas-mediated phosphorylation of ERK in AsPC-1 cells. Nature of the experiment: Inhibition of KRas-mediated phosphorylation of ERK (Cisbio HTRF pERK), AsPC-1 cells. As to conditions: Homo sapiens, ASPC1, AsPC-1 cells; HTRF pERK. It counts as cell-based. Summed up:
as §1

The target of a further experiment is T8, KRas^G12D (Homo sapiens, UniProt P01116, G12D).
T8 construct: Biotinylated KRas (corresponding to amino acids 1-169, produced at Accelegan Inc.); biotin (biotinylated); purchased Accelegan Inc
T8 sequence (P01116 1-169 isoform P01116-2 G12D): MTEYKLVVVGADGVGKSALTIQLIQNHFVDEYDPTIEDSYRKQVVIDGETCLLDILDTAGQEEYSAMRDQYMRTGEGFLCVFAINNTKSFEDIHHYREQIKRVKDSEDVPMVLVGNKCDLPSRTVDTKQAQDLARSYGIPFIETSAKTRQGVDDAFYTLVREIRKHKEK
Nature of the experiment: KRas binding assay (TR-FRET tracer displacement), KRas G12D.

Another experiment addresses T9, KRas^G13D (Homo sapiens, UniProt P01116, G13D).
T9 construct: Biotinylated KRas (corresponding to amino acids 1-169, produced at Accelegan Inc.); biotin (biotinylated); purchased Accelegan Inc
The experiment in a line: KRas binding assay (TR-FRET tracer displacement), KRas G13D. As to conditions: TR-FRET tracer displacement, KRas G13D.

Molecules are shown by their SMILES.

T9 sequence (P01116 1-169 isoform P01116-2 G13D): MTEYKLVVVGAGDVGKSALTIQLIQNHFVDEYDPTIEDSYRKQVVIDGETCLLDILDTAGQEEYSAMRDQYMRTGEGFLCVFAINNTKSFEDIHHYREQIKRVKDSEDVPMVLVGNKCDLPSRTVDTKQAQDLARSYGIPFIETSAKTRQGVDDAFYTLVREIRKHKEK
T2 sequence (P01116 1-169 isoform P01116-2 Q61H): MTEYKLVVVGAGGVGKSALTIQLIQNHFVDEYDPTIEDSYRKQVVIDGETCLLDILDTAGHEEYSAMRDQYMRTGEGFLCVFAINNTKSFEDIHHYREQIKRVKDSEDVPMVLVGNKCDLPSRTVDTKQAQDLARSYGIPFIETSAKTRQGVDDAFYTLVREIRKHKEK
T1 sequence (P01116 1-169 isoform P01116-2 G12A): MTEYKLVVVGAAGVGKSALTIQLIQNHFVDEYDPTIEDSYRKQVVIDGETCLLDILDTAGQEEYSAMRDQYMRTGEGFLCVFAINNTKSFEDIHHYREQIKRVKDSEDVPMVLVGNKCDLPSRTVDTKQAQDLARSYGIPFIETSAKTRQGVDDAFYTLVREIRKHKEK
T5 sequence (P01116 1-169 isoform P01116-2): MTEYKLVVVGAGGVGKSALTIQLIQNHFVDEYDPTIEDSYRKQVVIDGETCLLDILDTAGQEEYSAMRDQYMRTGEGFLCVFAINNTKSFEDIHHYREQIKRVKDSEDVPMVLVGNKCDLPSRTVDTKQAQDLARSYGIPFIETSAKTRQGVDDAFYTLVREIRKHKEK

Broadly, the IC50 is the concentration at which inhibition is half-maximal. A high value points to weaker potency. Consider `Cc1cc2[nH]ncc2c(-c2ncc3c(N4CCC[C@]5(C4)NC(=O)NC5=O)nc(OC[C@@]45CCCN4C[C@H](F)C5)nc3c2F)c1C` [Example 731, (5R)-7-(7-(5,6-dimethyl-1H-indazol-4-yl)-8-fluoro-2-(((2R,7aS)-2-fluorohexahydro-1H-pyrrolizin-7a-yl)methoxy)pyrido[4,3-d]pyrimidin-4-yl)-1,3,7-triazaspiro[4.5]decane-2,4-dione], for which the IC50 on KRas^G12A turned out to be 13 nM; at KRas^Q61H it was 13 nM; on KRas^G12S, 12 nM; at KRas^G12R, 10 nM; on KRas^WT, 12 nM; on KRas^G12V, 8 nM. The IC50 at KRas^G12C was 11 nM; in experiment [1], above 10000 nM; in [2], above 10000 nM; at KRas^G12D it was 15 nM; at KRas^G13D, 13 nM.

As for `Cc1cc2[nH]ncc2c(-c2ncc3c(N4CCC[C@]5(C4)NC(=O)NC5=O)nc(OCC4(CN(C)C)CC4)nc3c2F)c1C` [Example 732, (5R)-7-(7-(5,6-dimethyl-1H-indazol-4-yl)-2-((1-((dimethylamino)methyl)cyclopropyl)methoxy)-8-fluoropyrido[4,3-d]pyrimidin-4-yl)-1,3,7-triazaspiro[4.5]decane-2,4-dione], the IC50 on KRas^G12A stood at 61 nM; on KRas^Q61H, 79 nM; on KRas^G12S, 63 nM; at KRas^G12R it was 47 nM; at KRas^WT it was 50 nM; on KRas^G12V it was 31 nM. The IC50 at KRas^G12C was 43 nM; in [1], above 10000 nM; in [2], above 10000 nM; on KRas^G12D, 113 nM; on KRas^G13D it was 60 nM.

As for `Oc1cc(Cl)c(C2CC2)c(-c2ncc3c(N4C[C@H]5C[C@@H](C4)[C@H](O)C5)nc(OCC45CCCN4CCC5)nc3c2F)c1` [Example 738, (1S,5S,6R)-3-(7-(3-chloro-2-cyclopropyl-5-hydroxyphenyl)-8-fluoro-2-((tetrahydro-1H-pyrrolizin-7a(5H)-yl)methoxy)pyrido[4,3-d]pyrimidin-4-yl)-3-azabicyclo[3.2.1]octan-6-ol], the IC50 at KRas^G12A was 11 nM; on KRas^Q61H it was 9 nM; on KRas^G12S, 9 nM; on KRas^G12R it was 2 nM; at KRas^WT, 11 nM; at KRas^G12V it was 3 nM. Moreover, the IC50 at KRas^G12C was 9 nM; in experiment [1], 1510 nM; in experiment [2] it was 5960 nM; on KRas^G12D it was 17 nM; on KRas^G13D it was 10 nM.

In the case of `O=C1NC(=O)C2(CCCN(c3nc(OCC45CCCN4CCC5)nc4c(F)c(-c5cc(O)cc(Cl)c5C5CC5)ncc34)C2)N1` (centres unmarked) [Example 739, 7-(7-(3-chloro-2-cyclopropyl-5-hydroxyphenyl)-8-fluoro-2-((hexahydro-1H-pyrrolizin-7a-yl)methoxy)pyrido[4,3-d]pyrimidin-4-yl)-1,3,7-triazaspiro[4.5]decane-2,4-dione], the IC50 on KRas^G12A is 2 nM; at KRas^Q61H, below 2 nM; on KRas^G12S, below 2 nM; at KRas^G12R, below 2 nM; on KRas^WT, below 2 nM; on KRas^G12V, below 2 nM. For the same compound, the IC50 was below 2 nM at KRas^G12C; above 10000 nM in experiment [1]; above 10000 nM in [2]; 3 nM on KRas^G12D; below 2 nM on KRas^G13D.

Regarding `O=C1NCC2(CCCN(c3nc(OCC45CCCN4CCC5)nc4c(F)c(-c5cc(O)cc(Cl)c5C5CC5)ncc34)C2)N1` (centres unmarked) [Example 741, 7-(7-(3-chloro-2-cyclopropyl-5-hydroxyphenyl)-8-fluoro-2-((hexahydro-1H-pyrrolizin-7a-yl)methoxy)pyrido[4,3-d]pyrimidin-4-yl)-1,3,7-triazaspiro[4.5]decan-2-one], the IC50 on KRas^G12A was 2 nM; at KRas^Q61H, below 2 nM; on KRas^G12S it was below 2 nM; at KRas^G12R, below 2 nM; at KRas^WT, below 2 nM; at KRas^G12V, below 2 nM. Besides, the IC50 at KRas^G12C is below 2 nM; in [1], above 10000 nM; in experiment [2], above 10000 nM; on KRas^G12D it was below 2 nM; at KRas^G13D it was 3 nM.

With `Oc1cc(Cl)c(C2CC2)c(-c2ncc3c(N4CCC[C@]5(C4)C[C@@H](O)C5)nc(OCC45CCCN4CCC5)nc3c2F)c1` [Example 743, (2r,4s)-6-(7-(3-chloro-2-cyclopropyl-5-hydroxyphenyl)-8-fluoro-2-((tetrahydro-1H-pyrrolizin-7a(5H)-yl)methoxy)pyrido[4,3-d]pyrimidin-4-yl)-6-azaspiro[3.5]nonan-2-ol], the IC50 on KRas^G12A is 8 nM; on KRas^Q61H, 7 nM; at KRas^G12S, 8 nM; at KRas^G12R, 20 nM; on KRas^WT it was 9 nM; at KRas^G12V it was 3 nM. Also, the IC50 at KRas^G12C is 6 nM; in [1] it was 1100 nM; in experiment [2], 3690 nM; on KRas^G12D, 8 nM; on KRas^G13D, 9 nM.

In the case of `O=C1NC(=O)C2(CCCN(c3nc(OCC45CCCN4CCC5)nc4c(F)c(-c5c6ccccc6cc6[nH]ncc56)ncc34)C2)N1` (centres unmarked) [Example 755, 7-(7-(1H-benzo[f]indazol-4-yl)-8-fluoro-2-((hexahydro-1H-pyrrolizin-7a-yl)methoxy)pyrido[4,3-d]pyrimidin-4-yl)-1,3,7-triazaspiro[4.5]decane-2,4-dione], the IC50 on KRas^G12A was found to be 14 nM; on KRas^Q61H it was 9 nM; on KRas^G12S, 11 nM; on KRas^G12R, 9 nM; on KRas^WT, 13 nM; on KRas^G12V, 11 nM. For the same compound, the 50% inhibitory concentration (IC50) at KRas^G12C was 11 nM; in [1] it was above 10000 nM; in experiment [2] it was above 10000 nM; on KRas^G12D it was 16 nM; on KRas^G13D, 11 nM.

As to `O=C1NCC2(CCCN(c3nc(OCC45CCCN4CCC5)nc4c(F)c(-c5c6ccccc6cc6[nH]ncc56)ncc34)C2)N1` (centres unmarked) [Example 756, 7-(7-(1H-benzo[f]indazol-4-yl)-8-fluoro-2-((hexahydro-1H-pyrrolizin-7a-yl)methoxy)pyrido[4,3-d]pyrimidin-4-yl)-1,3,7-triazaspiro[4.5]decan-2-one], the IC50 came out at 14 nM at KRas^G12A; 13 nM on KRas^Q61H; 13 nM at KRas^G12S; 17 nM at KRas^G12R; 13 nM on KRas^WT; 10 nM on KRas^G12V. Besides, the IC50 at KRas^G12C was 12 nM; in [1], above 10000 nM; in experiment [2] it was above 10000 nM; on KRas^G12D, 11 nM; at KRas^G13D, 13 nM.

In the case of `O=C1NC(=O)C2(CCCN(c3nc(OC[C@@]45CCCN4C[C@H](F)C5)nc4c(F)c(-c5c6ccccc6cc6[nH]ncc56)ncc34)C2)N1` (stereo partly drawn) [Example 759, 7-(7-(1H-benzo[f]indazol-4-yl)-8-fluoro-2-(((2R,7aS)-2-fluorohexahydro-1H-pyrrolizin-7a-yl)methoxy)pyrido[4,3-d]pyrimidin-4-yl)-1,3,7-triazaspiro[4.5]decane-2,4-dione], the IC50 on KRas^G12A amounted to 8 nM; at KRas^Q61H, 5 nM; on KRas^G12S it was 7 nM; at KRas^G12R it was 6 nM; at KRas^WT it was 8 nM; at KRas^G12V, 4 nM. Also, the IC50 is 7 nM at KRas^G12C; above 10000 nM in experiment [1]; above 10000 nM in experiment [2]; 8 nM at KRas^G12D; 7 nM at KRas^G13D.

Consider `O=C1NCC2(CCCN(c3nc(OC[C@@]45CCCN4C[C@H](F)C5)nc4c(F)c(-c5c6ccccc6cc6[nH]ncc56)ncc34)C2)N1` (stereo partly drawn) [Example 760, 7-(7-(1H-benzo[f]indazol-4-yl)-8-fluoro-2-(((2R,7aS)-2-fluorohexahydro-1H-pyrrolizin-7a-yl)methoxy)pyrido[4,3-d]pyrimidin-4-yl)-1,3,7-triazaspiro[4.5]decan-2-one], for which the IC50 on KRas^G12A is 91 nM; at KRas^Q61H, 66 nM; on KRas^G12S it was 76 nM; on KRas^G12R, 170 nM; at KRas^WT it was 88 nM; on KRas^G12V, 67 nM. Also, the IC50 is 73 nM on KRas^G12C; above 10000 nM in [1]; above 10000 nM in experiment [2]; 76 nM at KRas^G12D; 72 nM on KRas^G13D.

(Values after patent US20260015350A1, “AZAQUINAZOLINE PAN-KRAS INHIBITORS” (Mirati Therapeutics, Inc., priority 2022, published 2026).)
